Data on one compound can be found in PubChem BioAssay AID492957 (The Scripps Research Institute Molecular Screening Center, 2010).

Active and inactive are the calls of the source.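 Rule for the calls: active = IC50 at or below 10 µM; inactive = IC50 above 10 µM.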

This assay deals with E. coli V66 + T4 gene 2 mutant phage, OD growth. As to the kind of experiment: RecBCD inhibition via phage-restricted bacterial growth – absorbance, V66 E. coli, mutant T4 phage, counter-screen for AddAB inhibitor project, dose response (AID 492957).

As to `O=C(NCc1cccnc1)c1ccc([N+](=O)[O-])o1`, the IC50 is 86.4 µM (inactive).
